# Data from patent publication US5059590A, “Imidazole derivatives, process for production thereof, and use thereof” (Yamasa Shoyu Kabushiki Kaisha, priority 1988, dated 1991).
# Assays:
# Assay type in all cases: cell-based
# [1] = system: L1210 mouse leukemia cells; assay: In vitro anti-proliferative activity against mouse tumor cell lines, Test Method 1 (L1210); conditions: L1210, 48 hours, 37° C.
# Experimental: (§1) In vitro anti-proliferative activity against mouse tumor cell lines
# 1. L1210 mouse leukemia cells are cultivated in RPMI1640 medium supplemented with 10% fetal bovine serum, and the resultant cells are diluted with the same medium in the logarithmic growth phase to a concentration of 1.6×10^5 cells/ml.
# 2. To test tubes each containing 0.9 ml of the above obtained diluted cell suspension is added 0.1 ml each of test solutions serially diluted with a culture medium or phosphate-buffered saline (PBS), and the mixture is incubated in a 2% CO2 -incubator at 37° C. for 48 hours.
# 3. After incubation, the number of the cells in each tube is counted with a Coulter counter (Model ZB, Coulter Electronics), and the growth inhibition percent (%) of the cells at each concentration of a test compound is calculated from the following equation: [formula] Tx: Number of the cells in a test tube containing a test compound as counted upon completion of the incubation (cells/ml)
# Cx: Number of the cells in a test tube containing no test compound as counted upon completion of the incubation (cells/ml)
# Co: Number of the cells in a test tube containing no test compound as counted at the initiation of the incubation (cells/ml)
# 4. The concentration of the test compound, which causes cell growth inhibition by 50%, is determined by the graph showing the relationship between the growth inhibition percent and the concentration of the test compound, and is defined as 50% inhibitory concentration (IC50).
# [2] = system: Mouse lymphoma cell line P388; assay: In vitro anti-proliferative activity against mouse tumor cell lines, Test Method 2 (P388); conditions: P388, 48 hours, 37° C.
# Experimental: as §1
# (§2) 1. Mouse lymphoma cell line P388 or mouse sarcoma 180 is suspended in RPMI1640 medium supplemented with 10% fetal bovine serum and 2 μM 2-hydroxyethyl disulfide to a concentration of 10^5 cells/ml. Test compounds are serially diluted with the same medium.
# (§3) 2. 0.5 ml of the cell suspension thus obtained is admixed with 0.5 ml of the medium or the test compound solution, and the mixture is incubated in a 5% CO2 -incubator at 37° C. for 48 hours. The incubation is carried out in glass culture tubes.
# (§4) 3. At the end of incubation, the number of the cells in each tube is counted with a Coulter counter (Model ZB, Coulter Electronics), and the growth inhibition percent (%) is calculated from the same equation as in Test Method 1.
# (§5) 4. The IC50 value is obtained as in Test Method I.
# mouse sarcoma 180 = assay: In vitro anti-proliferative activity against mouse tumor cell lines, Test Method 2 (sarcoma 180); conditions: Sarcoma 180, 48 hours, 37° C.
# Experimental: as §1, §2, §3, §4, §5
IC50 [1] [µg/mL],IC50 [2] [µg/mL],IC50 (mouse sarcoma 180) [µg/mL],Structure (SMILES)
1.9,0.93,0.8,C#Cc1c(C#N)ncn1[C@@H]1O[C@H](CO)[C@@H](O)[C@H]1O [5-ethynyl-1-β-D-ribofuranosylimidazole-4-carbonitrile]
3.3,,,"N#Cc1ncn([C@@H]2O[C@H](CO)[C@@H](O)[C@H]2O)c1C#CCCO [R = [drawing 28]; A = CN; R^1 = CH2 CH2 OH, 5-(4-hydroxy-1-butyn-1yl)-1-β-D-ribofuranosylimidazole-4-carbonitrile]"
4.1,,,"N#Cc1ncn([C@@H]2O[C@H](CO)[C@@H](O)[C@H]2O)c1C#CCO [R = [drawing 28]; A = CN; R^1 = CH2 OH, 5-(3-Hydroxy-1-propyn-1-yl)-1-β-D-ribofuranosylimidazole-4-carbonitrile]"
0.7,,,"NC(=O)c1ncn([C@@H]2O[C@H](CO)[C@@H](O)[C@H]2O)c1C#CCO [R = [drawing 28]; A = CONH2; R^1 = CH2 OH, 5-(3-Hydroxy-1-propyn-1-yl)-1-β-D-ribofuranosylimidazole-4-carboxamide]"

# More lines, now with the values behind:
Structure (SMILES),IC50 [1] [µg/mL],IC50 [2] [µg/mL],IC50 (mouse sarcoma 180) [µg/mL]
NC(=O)c1ncn([C@@H]2O[C@H](CO)[C@@H](O)[C@H]2O)c1C#CCCO [5-(4-hydroxy-1butyn-1-yl)-1β-D-ribofuranosylimidazole-4-carboxamide],1.28,,
C#Cc1[nH]cnc1C#N [5-ethynylimidazole-4-carbonitrile],2.9,14.1,9.92
C#Cc1[nH]cnc1C(N)=O [5-ethynylimidazole-4-carboxamide],4,4.37,1.39
"CCCC#Cc1c(C(N)=O)ncn1[C@@H]1O[C@H](CO)[C@@H](O)[C@H]1O [R = [drawing 28]; A = CONH2; R^1 = C3, 5-(1-pentyn-1-yl)-1-β-D-ribofuranosylimidazole-4-carboxamide]",2.92,,
